Reference: PubChem BioAssay AID328 (DTP/NCI, 2004)
Several values for one entry are separate records, joined by “and”; a condition that tells them apart may be missing. Identical values can stand only once. Inconclusive results and toxic doses are left out. How the source made its calls: active means survival T/C of 150% or more; inactive means T/C below 125% in these data.

Test system: BDF1 mice, P388 leukemia ip, median survival T/C
Assay: NCI In Vivo Anticancer Drug Screen. Data for tumor model P388 Leukemia (intraperitoneal) in B6D2F1 (BDF1) mice
Conditions: endpoint: median survival time, higher = longer survival
Summary of the method: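 Antitumour effect was judged in vivo: survival in drug-treated mice, normalised to that of vehicle-dosed controls, gives the reported T/C.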

[1] = dose: 100.0 mg/kg/injection, schedule: Q04DX003 (ip), vehicle: Klucel (hydroxypropylcellulose) (HPC)
[2] = dose: 400.0 mg/kg/injection, schedule: Q04DX003 (ip), vehicle: Klucel (hydroxypropylcellulose) (HPC)

Measured: T/C

C/C(=C\n1ccccc1=N)C(=O)c1ccc(F)cc1
inactive: [1] 95 % of control | dose: 200.0 mg/kg/injection, schedule: Q04DX003 (ip), vehicle: Klucel (hydroxypropylcellulose) (HPC) 90 % of control | [2] 104 % of control

NCC(O)CSc1ccc(Cl)c(Cl)c1 (stereo not given)
inactive: dose: 50.0 mg/kg/injection, schedule: Q04DX002 (ip), vehicle: saline with Tween-80 98 % of control | dose: 100.0 mg/kg/injection, schedule: Q04DX002 (ip), vehicle: saline with Tween-80 106 % of control

CCCCc1c(C(=O)OCC)oc(C(=O)OCC)c(CCCC)c1=O
inactive: dose: 12.5 mg/kg/injection, schedule: Q04DX003 (ip), vehicle: Klucel (hydroxypropylcellulose) (HPC) 99 % of control | dose: 25.0 mg/kg/injection, schedule: Q04DX003 (ip), vehicle: Klucel (hydroxypropylcellulose) (HPC) 91 % of control | dose: 50.0 mg/kg/injection, schedule: Q04DX003 (ip), vehicle: Klucel (hydroxypropylcellulose) (HPC) 115 % of control | [1] 91 % of control | [2] 102 % of control

CC(=O)OCC(=O)[C@@]1(O)CC[C@H]2[C@@H]3CCC4=CC(=O)[C@H](C)C[C@]4(C)[C@@]3(F)[C@@H](O)C[C@@]21C
inactive: dose: 6.25 mg/kg/injection, schedule: Q01DX009 (ip), vehicle: Klucel (hydroxypropylcellulose) (HPC) 109 % of control | dose: 12.5 mg/kg/injection, schedule: Q01DX009 (ip), vehicle: Klucel (hydroxypropylcellulose) (HPC) 109 % of control | dose: 25.0 mg/kg/injection, schedule: Q01DX009 (ip), vehicle: Klucel (hydroxypropylcellulose) (HPC) 90 % of control | dose: 254.0 mg/kg/injection, schedule: Q01DX001 (ip), vehicle: Klucel (hydroxypropylcellulose) (HPC) 100 % of control | dose: 385.0 mg/kg/injection, schedule: Q01DX001 (ip), vehicle: Klucel (hydroxypropylcellulose) (HPC) 91 % of control

C[N+](C)(C)C.N=C=O.N=C=O.N=C=O.N=C=O.[Co+2]
inactive: dose: 2.5 mg/kg/injection, schedule: Q01DX009 (ip), vehicle: saline 88 % of control | dose: 5.0 mg/kg/injection, schedule: Q01DX001 (ip), vehicle: other 86 % of control | dose: 5.0 mg/kg/injection, schedule: Q01DX009 (ip), vehicle: saline with Tween-80 100 % of control | dose: 5.0 mg/kg/injection, schedule: Q04DX003 (ip), vehicle: saline with Tween-80 95 % of control | dose: 10.0 mg/kg/injection, schedule: Q01DX001 (ip), vehicle: other 95 % of control | dose: 10.0 mg/kg/injection, schedule: Q01DX009 (ip), vehicle: saline with Tween-80 115 % of control and 116 % of control | dose: 10.0 mg/kg/injection, schedule: Q04DX003 (ip), vehicle: saline with Tween-80 109 % of control | dose: 20.0 mg/kg/injection, schedule: Q01DX001 (ip), vehicle: other 100 % of control | dose: 20.0 mg/kg/injection, schedule: Q01DX009 (ip), vehicle: saline with Tween-80 95 % of control and 115 % of control | dose: 20.0 mg/kg/injection, schedule: Q01DX009 (ip), vehicle: saline 95 % of control | dose: 20.0 mg/kg/injection, schedule: Q04DX003 (ip), vehicle: saline with Tween-80 95 % of control | dose: 40.0 mg/kg/injection, schedule: Q01DX009 (ip), vehicle: saline 117 % of control

C#CC(C)(C)NC(=O)NC12CC3CC(CC(C3)C1)C2
inactive: dose: 200.0 mg/kg/injection, schedule: Q01DX001 (ip), vehicle: saline with Tween-80 88 % of control | dose: 400.0 mg/kg/injection, schedule: Q01DX001 (ip), vehicle: saline with Tween-80 95 % of control

CCCCCCCOC(C[N+](=O)[O-])C(Cl)(Cl)Cl (stereo not given)
inactive: dose: 12.5 mg/kg/injection, schedule: Q01DX009 (ip), vehicle: saline 120 % of control | dose: 25.0 mg/kg/injection, schedule: Q01DX009 (ip), vehicle: saline 120 % of control | dose: 37.5 mg/kg/injection, schedule: Q04DX003 (ip), vehicle: saline 100 % of control | dose: 50.0 mg/kg/injection, schedule: Q01DX009 (ip), vehicle: saline 120 % of control | dose: 75.0 mg/kg/injection, schedule: Q04DX003 (ip), vehicle: saline 95 % of control | dose: 150.0 mg/kg/injection, schedule: Q04DX003 (ip), vehicle: saline 95 % of control | dose: 340.0 mg/kg/injection, schedule: Q04DX003 (ip), vehicle: saline 90 % of control

C[S+](C)C
inactive: dose: 12.0 mg/kg/injection, schedule: Q01DX001 (ip), vehicle: saline 100 % of control | dose: 12.5 mg/kg/injection, schedule: Q04DX003 (ip), vehicle: saline 100 % of control | dose: 25.0 mg/kg/injection, schedule: Q01DX001 (ip), vehicle: saline 100 % of control | dose: 25.0 mg/kg/injection, schedule: Q04DX003 (ip), vehicle: saline 100 % of control | dose: 50.0 mg/kg/injection, schedule: Q01DX001 (ip), vehicle: saline 100 % of control | dose: 50.0 mg/kg/injection, schedule: Q04DX003 (ip), vehicle: saline 100 % of control | dose: 100.0 mg/kg/injection, schedule: Q04DX003 (ip), vehicle: saline 111 % of control | dose: 200.0 mg/kg/injection, schedule: Q04DX003 (ip), vehicle: saline 100 % of control | dose: 400.0 mg/kg/injection, schedule: Q04DX003 (ip), vehicle: saline 96 % of control
